Data taken from patent US7825160B2, “(Biphenyl) carboxylic acids and derivatives thereof” (Cellzome Limited, priority 2004, dated 2010).

System: γ-secretase activity
Experiment: Screening for γ-secretase-modulating activity in SKN neuroblastoma cells carrying APP swedish mutant
Assay type: cell-based
Details: read-out: IC50 on the γ-secretase activity, Activity range
Method: Screening was carried out using SKN neuroblastoma cells carrying the APP-“swedish mutant” (point mutations at position 595 and 596, numbering based on APP695) grown in DMEM/NUT-mix F12 (HAM) provided by Gibco (cat no. 31330-38) containing 5% Serum/Fe supplemented with 1% non-essential amino acids, 100 U/ml Pen/Strep.
Cells were grown to near confluency.
The screening was performed using the assay as described in Citron et al (1997) Nature Medicine 3: 67.
IC50-Values of Selected Compounds of the Invention on the γ-Secretase Activity.

Structure (SMILES)	IC50
CC(C)c1ccc(COc2cc(CC(=O)O)cc(-c3ccc(C(F)(F)F)cc3)c2)cc1 [II, [5-(4-Isopropyl-benzyloxy)-4′-trifluoromethyl-biphenyl-3-yl]-acetic acid]	1 to 10 µM
CS(=O)(=O)c1ccc(COc2cc(CC(=O)O)cc(-c3ccc(C(F)(F)F)cc3)c2)cc1 [IV, [5-(4-Methanesulfonyl-benzyloxy)-4′-trifluoromethyl-biphenyl-3-yl]-acetic acid]	10 to 100 µM
O=C(O)Cc1cc(OCc2ccccc2C(F)(F)F)cc(-c2ccc(C(F)(F)F)cc2)c1 [L, [4′-Trifluoromethyl-5-(2-trifluoromethyl-benzyloxy)-biphenyl-3-yl]-acetic acid]	1 to 10 µM
O=C(O)Cc1cc(OCCc2ccccc2)cc(-c2ccc(C(F)(F)F)cc2)c1 [LI, (5-Phenethyloxy-4′-trifluoromethyl-biphenyl-3-yl)-acetic acid]	1 to 10 µM
O=C(O)Cc1cc(OCC2CCCCO2)cc(-c2ccc(C(F)(F)F)cc2)c1 (stereo not shown) [LII, [5-(Tetrahydro-pyran-2-ylmethoxy)-4′-trifluoromethyl-biphenyl-3-yl]-acetic acid]	100 to 300 µM
CN(C)C(=O)c1ccc(COc2cc(CC(=O)O)cc(-c3ccc(C(F)(F)F)cc3)c2)cc1 [LIII, [5-(4-Dimethylcarbamoyl-benzyloxy)-4′-trifluoromethyl-biphenyl-3-yl]-acetic acid]	100 to 300 µM
CNC(=O)c1ccc(COc2cc(CC(=O)O)cc(-c3ccc(C(F)(F)F)cc3)c2)cc1 [LIV, [5-(4-Methylcarbamoyl-benzyloxy)-4′-trifluoromethyl-biphenyl-3-yl]-acetic acid]	100 to 300 µM
O=C(O)Cc1cc(OCc2cccc(Cl)c2)cc(-c2ccc(C(F)(F)F)cc2)c1 [LIX, [5-(3-Chloro-benzyloxy)-4′-trifluoromethyl-biphenyl-3-yl]-acetic acid]	1 to 10 µM
O=C(O)Cc1cc(OCc2ccc(C(=O)N3CCCC3)cc2)cc(-c2ccc(C(F)(F)F)cc2)c1 [LV, {5-[4-(Pyrrolidine-1-carbonyl)-benzyloxy]-4′-trifluoromethyl-biphenyl-3-yl}-acetic acid]	10 to 100 µM
O=C(O)Cc1cc(OCc2ccc(S(=O)(=O)N3CCOCC3)cc2)cc(-c2ccc(C(F)(F)F)cc2)c1 [LVI, {5-[4-(Morpholine-4-sulfonyl)-benzyloxy]-4′-trifluoromethyl-biphenyl-3-yl}-acetic acid]	10 to 100 µM
O=C(O)Cc1cc(OCc2ccc(OC(F)(F)F)cc2)cc(-c2ccc(C(F)(F)F)cc2)c1 [LVII, [5-(4-Trifluoromethoxy-benzyloxy)-4′-trifluoromethyl-biphenyl-3-yl]-acetic acid]	1 to 10 µM
O=C(O)Cc1cc(OCc2ccccc2Cl)cc(-c2ccc(C(F)(F)F)cc2)c1 [LVIII, [5-(2-Chloro-benzyloxy)-4′-trifluoromethyl-biphenyl-3-yl]-acetic acid]	1 to 10 µM
Cc1ccc(COc2cc(CC(=O)O)cc(-c3ccc(C(F)(F)F)cc3)c2)cc1 [LX, [5-(4-Methyl-benzyloxy)-4′-trifluoromethyl-biphenyl-3-yl]-acetic acid]	1 to 10 µM
O=C(O)Cc1cc(OCc2ccccc2)cc(-c2ccccc2)c1 [VII, (5-Benzyloxy-biphenyl-3-yl)-acetic acid]	1 to 10 µM
O=C(O)Cc1cc(OCc2ccccc2)cc(-c2cc(C(F)(F)F)cc(C(F)(F)F)c2)c1 [XI, (5-Benzyloxy-3′,5′-bis-trifluoromethyl-biphenyl-3-yl)-acetic acid]	1 to 10 µM
O=C(O)Cc1cc(OCc2ccccc2)cc(-c2ccc(Cl)c(Cl)c2)c1 [XII, (5-Benzyloxy-3′,4′-dichloro-biphenyl-3-yl)-acetic acid]	1 to 10 µM
COc1cccc(-c2cc(CC(=O)O)cc(OCc3ccccc3)c2)c1 [XIV, (5-benzyloxy-3′-methoxy-biphenyl-3-yl)-acetic Acid]	10 to 100 µM
O=C(O)Cc1cc(OCc2ccc(Cl)cc2)cc(-c2ccc(C(F)(F)F)cc2)c1 [XLI, [5-(4-Chloro-benzyloxy)-4′-trifluoromethyl-biphenyl-3-yl]-acetic acid]	1 to 10 µM
Cc1cc(COc2cc(CC(=O)O)cc(-c3ccc(C(F)(F)F)cc3)c2)no1 [XLIII, [5-(5-Methyl-isoxazol-3-ylmethoxy)-4′-trifluoromethyl-biphenyl-3-yl]-acetic acid]	10 to 100 µM
O=C(O)Cc1cc(OCc2cccc(C(F)(F)F)c2)cc(-c2ccc(C(F)(F)F)cc2)c1 [XLIX, [4′-Trifluoromethyl-5-(3-trifluoromethyl-benzyloxy)-biphenyl-3-yl]-acetic acid]	1 to 10 µM
O=C(O)Cc1cc(OCC2CCOCC2)cc(-c2ccc(C(F)(F)F)cc2)c1 [XLV, [5-(Tetrahydro-pyran-4-ylmethoxy)-4′-trifluoromethyl-biphenyl-3-yl]-acetic acid]	10 to 100 µM
O=C(O)Cc1cc(OCc2ccc(C(=O)N3CCOCC3)cc2)cc(-c2ccc(C(F)(F)F)cc2)c1 [XLVIII, {5-[4-(Morpholine-4-carbonyl)-benzyloxy]-4′-trifluoromethyl-biphenyl-3-yl}-acetic acid]	10 to 100 µM

Structure (SMILES)	IC50
NC(=O)c1cccc(-c2cc(CC(=O)O)cc(OCc3ccccc3)c2)c1 [XV, (5-benzyloxy-3′-carbamoyl-biphenyl-3-yl)-acetic Acid]	10 to 100 µM
O=C(O)Cc1cc(OCc2ccccc2)cc(-c2cccc(O)c2)c1 [XVI, (5-benzyloxy-3′-hydroxy-biphenyl-3-yl)-acetic Acid]	10 to 100 µM
CS(=O)(=O)c1ccc(-c2cc(CC(=O)O)cc(OCc3ccccc3)c2)cc1 [XVII, (5-benzyloxy-4′-methanesulfonyl-biphenyl-3-yl)-acetic Acid]	10 to 100 µM
NS(=O)(=O)c1ccc(-c2cc(CC(=O)O)cc(OCc3ccccc3)c2)cc1 [XVIII, (5-benzyloxy-4′-sulfamoyl-biphenyl-3-yl)-acetic Acid]	10 to 100 µM
O=C(O)Cc1cc(OCc2ccccc2)cc(-c2ccc(F)cc2)c1 [XXII, (5-Benzyloxy-4′-fluoro-biphenyl-3-yl)-acetic acid]	10 to 100 µM
O=C(O)Cc1cc(OCc2ccccc2)cc(-c2ccc(Cl)cc2)c1 [XXIII, (5-Benzyloxy-4′-chloro-biphenyl-3-yl)-acetic acid]	1 to 10 µM
CC(=O)Nc1ccc(-c2cc(CC(=O)O)cc(OCc3ccccc3)c2)cc1 [XXIV, (4′-Acetylamino-5-benzyloxy-biphenyl-3-yl)-acetic acid]	100 to 300 µM
COc1ccc(-c2cc(CC(=O)O)cc(OCc3ccccc3)c2)cc1 [XXIX, (5-Benzyloxy-4′-methoxy-biphenyl-3-yl)-acetic acid]	10 to 100 µM
O=C(O)Cc1cc(OCc2ccccc2)cc(-c2ccc(O)cc2)c1 [XXV, (5-Benzyloxy-4′-hydroxy-biphenyl-3-yl)-acetic acid]	100 to 300 µM
CC(C)Oc1ccc(-c2cc(CC(=O)O)cc(OCc3ccccc3)c2)cc1 [XXVI, (5-Benzyloxy-4′-isopropoxy-biphenyl-3-yl)-acetic acid]	10 to 100 µM
O=C(O)Cc1cc(OCc2ccccc2)cc(-c2cc(F)cc(F)c2)c1 [XXVII, (5-Benzyloxy-3′,5′-difluoro-biphenyl-3-yl)-acetic acid]	10 to 100 µM
CC(C)Oc1cccc(-c2cc(CC(=O)O)cc(OCc3ccccc3)c2)c1 [XXVIII, (5-Benzyloxy-3′-isopropoxy-biphenyl-3-yl)-acetic acid]	10 to 100 µM
COc1ccccc1-c1cc(CC(=O)O)cc(OCc2ccccc2)c1 [XXX, (5-Benzyloxy-2′-methoxy-biphenyl-3-yl)-acetic acid]	10 to 100 µM
Cc1ccccc1-c1cc(CC(=O)O)cc(OCc2ccccc2)c1 [XXXI, (5-Benzyloxy-2′-methyl-biphenyl-3-yl)-acetic acid]	10 to 100 µM
Cc1cccc(-c2cc(CC(=O)O)cc(OCc3ccccc3)c2)c1 [XXXII, (5-Benzyloxy-3′-methyl-biphenyl-3-yl)-acetic acid]	10 to 100 µM
O=C(O)Cc1cc(OCc2ccccc2)cc(-c2cccc(C(F)(F)F)c2)c1 [XXXIII, (5-Benzyloxy-3′-trifluoromethyl-biphenyl-3-yl)-acetic acid]	10 to 100 µM
O=C(O)Cc1cc(OCc2ccccc2)cc(-c2ccccc2F)c1 [XXXIV, (5-Benzyloxy-2′-fluoro-biphenyl-3-yl)-acetic acid]	10 to 100 µM
Cc1ccc(-c2cc(CC(=O)O)cc(OCc3ccccc3)c2)cc1 [XXXV, (5-Benzyloxy-4′-methyl-biphenyl-3-yl)-acetic acid]	10 to 100 µM
O=C(O)Cc1cc(OCc2ccccc2)cc(-c2cccc(F)c2)c1 [XXXVI, (5-Benzyloxy-3′-fluoro-biphenyl-3-yl)-acetic acid]	10 to 100 µM
O=C(O)Cc1cc(OCc2ccccc2)cc(-c2cccc(Cl)c2)c1 [XXXVII, (5-Benzyloxy-3′-chloro-biphenyl-3-yl)-acetic acid]	100 to 300 µM
O=C(O)Cc1cc(OCc2ccccc2)cc(-c2cccc(OC(F)(F)F)c2)c1 [XXXVIII, (5-Benzyloxy-3′-trifluoromethoxy-biphenyl-3-yl)-acetic acid]	1 to 10 µM
